Patent publication US20110288314A1, “PHLOROGLUCINOL DERIVATIVES FROM ECKLONIA CAVA HAVING ANTI-HIV-1 INHIBITORY ACTIVITY” (priority 2008, published 2011)

Legend:
[1] = test system: CEM-SS or H9 cells; assay: Cell viability (MTT) assay; type: cell-based, human; conditions: up to 500 μM, 72 h
Procedure: H9 and H9/HIV-1IIIB cell lines were obtained through American Type of Culture Collection (Manassas, Va., USA). CEM-SS cell line from Dr. P. Nara and C8166 cell line from Dr. G. Farrar were provided by the EU Programme EVA Centre for AIDS Reagents, NIBSC, UK. CEM-SS, C8166, H9 and H9/HIV-1IIIB cell lines were grown in RPMI 1640 medium supplemented with 10% FBS, 100 μg of streptomycin per ml and 100 U of penicillin per ml. HIV-1IIIB virus stock was obtained from the culture supernatant of chronically infected H9/HIV-1IIIB cells. Cell-free virus was harvested from the supernatants by centrifugation and filtration through 0.22 μM filter. The virus stocks were stored as small aliquots at […] until use.
The cytotoxic concentrations of 6,6′-bieckol were determined by MTT assay, a method based on the reduction of 3-(4,5-dimethylthiazol-2-yl)-2,5-diphenyltetrazolium bromide (MTT). Four hundreds of microliters of medium containing CEM-SS or H9 cells were cultured into a 48-well plate at a density of 10^5 cells/ml. The plate was incubated overnight and treated with 100 μl of RPMI 1640 medium with/without 6,6′-bieckol. After 72 h of incubation, 100 μl of 500 μg/ml MTT was added to each well and the plate was incubated for another 4 h at 37° C. […] Optical density was measured at 540 nm with a microplate reader. […]

[2] = test system: HIV-1IIIB; assay: Western blot analysis of p24 / gag proteins in HIV-1IIIB infected H9 cells; type: cell-based
Procedure: 1×10^6 cells/ml H9 cells were cultured in cell culture plates. Following sample treatment, plates were incubated for 2 h and infected with HIV-1IIIB at 200 CCID50. After 96 h of incubation at 37° C., cells were pelleted at 1000 rpm for 10 min and supernatant was harvested. The cells were washed 3 times with PBS and lysed with 500 μl of lysis buffer containing 50 mM Tris-HCl (pH 7.5), 0.4% Nonidet P-40, 120 mM NaCl, 1.5 mM MgCl2, 2 mM phenylmethylsulfonyl fluoride, 80 μg/ml leupeptin, 3 mM NaF, and 1 mM DTT. Hundred micrograms of total protein was used for immunoblot analysis.
Culture supernatant containing virus was filtered through 0.22 μm filter, mixed with 30% polyethylene glycol (PEG) (50% v/v) with 0.4 M NaCl, and virus particles were pelleted at 15000 rpm for 45 min. The viral pellets were lysed, resuspended in SDS sample buffer and equal volume of viral lysates (20 μl) was loaded onto SDS gel. The proteins were subjected to denaturating SDSAGE in 25 mM Tris, 192 mM glycine, 0.1% SDS with a 4% stacking, and 10% separating gel. Separated proteins were transferred onto a nitrocellulose membrane, blocked in Tris buffered saline containing 0.1% (v/v) Tween 20 (TBS-T) and 5% skim milk powder. The membrane was probed with mouse anti-p24 monoclonal antibody (1:500, SantaCruz) and horseradish peroxidase (HRP)-conjugated anti-mouse IgG secondary antibody (1:5000, SantaCruz). […]

[3] = biological target: T1, HIV-1 reverse transcriptase (Human immunodeficiency virus type 1 group M subtype B, UniProt P04585); assay: Reverse transcriptase activity assay (fluorescence RT kit, viral lysate); type: biochemical; set-up: HIV-1 RT enzyme activity inhibited: dose or concentration left out as unconfirmed; conditions: RT from cell culture supernatant
T1 construct: HIV-1 reverse transcriptase in the viral lysate; endogenous in cells; host or cells: lysate of virus particles produced by infected cell culture (viral lysate)
Procedure: The activity of HIV-1 reverse transcriptase in the viral lysate was evaluated using a fluorescence RT assay kit (InvitroGen) according to the manufacturer's protocol. Briefly, 20 μl of reaction mixture containing a template/primer hybrid, poly(A)/d(T)16, and dTTP as a triphosphate substrate was added to the wells of amicrotiter plate and mixed with 5 μl of viral lysate containing various concentrations of 6,6′-bieckol. After incubation at 37° C. for 1 h, the reaction was stopped by the addition of 2 μl of 200 mM EDTA to each reaction. Fluorescence intensity was measured at 480 nm (excitation) and 520 nm (emission) with a GENiosmicroplate reader (Tecan Austria GmbH, Austria) after the addition of 173 μl of fluorescent PicoGreenreagent, which selectively binds to dsDNA or DNA-RNA heteroduplexes over single-stranded nucleic acids or free nucleotides.

[4] = test system: HIV-1IIIB; assay: HIV-1 p24 antigen capture ELISA in H9 cells; type: cell-based; set-up: dose or concentration left out as unconfirmed; conditions: ELISA (FIG. 1D)
Procedure: H9 cells (3×10^6 cells/ml) were incubated in the presence or absence of HIV-1IIIB for 1 h at 37° C. Cells were washed to remove unbound viruses and resuspended at 3×10^5 cells/ml in culture medium. Aliquots of 1 ml were placed in a 24-well culture plate containing an equal volume of medium with/without 6,6′-bieckol.
AZT was treated as positive control. In order to determine the amount of virus released to the medium, HIV-1 p24 antigen capture ELISA was carried out with a commercial kit (Perkin-Elmer Life Sciences, Boston, Mass.) according to the manufacturer's instructions.

[5] = test system: HIV-1IIIB; assay: Co-cultivation assay (C8166 cells with H9 cells chronically infected with HIV-1IIIB); type: cell-based; conditions: highest concentration treated; C8166 + H9/HIV-1IIIB, 72 h
Procedure: 3×10^4 C8166 cells were pre-treated with various concentrations of 6,6′-bieckol for 2 h and co-cultured with 3×10^3 H9 cells chronically infected with HIV-1IIIB at 37° C. in a humidified atmosphere of 5% CO2. After 72 h of incubation, the number of syncytia formed was counted using a microscope.

In the case of `Oc1cc(O)cc(Oc2c(O)cc(O)c3c2Oc2c(O)cc(O)c(-c4c(O)cc(O)c5c4Oc4c(O)cc(O)c(Oc6cc(O)cc(O)c6)c4O5)c2O3)c1` [6,6′-bieckol], the cytotoxicity [1] was “no cytotoxicity”, the “protease inhibition judged from p55 gag related protein bands” value ([2]; Western blot) was “did not inhibit the protease” and the “inhibition of p24 antigen production versus AZT” value ([2]; of 6,6′-bieckol vs AZT 5 μM (FIG. 2C)) was “comparable to that of AZT”. For the same molecule, the inhibition at 1 µM ([3]; 1 μM, read-out: HIV-1 RT enzyme inhibition) was 50.5%, the “HIV-1 RT enzyme activity inhibited” value [3] was 96.33% and the “inhibition of production of p24 antigen” value [4] was “more than 90%”. The “inhibition of syncytia formation in co-cultivation assay” value [5] was “around 80%”.
